Assay results reported in paper PMC1930153, “Engineering the Melanocortin-4 Receptor to Control Constitutive and Ligand-Mediated Gs Signaling In Vivo” (PLoS ONE, 2007).
Blank lines part the entries; values can stand above or below the compound they belong to.

Key:
Format in all cases: cell-based
MC4R I102S = biological target: T1, MC4R I102S (Homo sapiens, UniProt P32245, I102S); assay: cAMP assay, I102S MC4R mutant in HEK293 cells
T1 construct: prolactin signal peptide (N); green fluorescent protein (N); expressed in transfected cells; host or cells: HEK293
Description: (§1) HEK293 cells were maintained in Dulbecco's modified Eagle's medium supplemented with 10% fetal bovine serum containing L-glutamine. Wild-type and mutant MC4R were transfected into HEK 293 cells with Lipofectamine (Invitrogen). For the internalization assays, stable cell lines expressing wild-type or RASSL-MC4R were generated by G418-mediated selection (10 µg/ml) of clones expressing the neomycin-resistance gene cotransfected with MC4R. Stable cell lines were maintained by selection with 5 µg/ml G418.
(§2) cAMP production was measured with an ultra sensitive enzymatic cAMP assay (CatchPoint, Molecular Devices, Sunnyvale, CA). Transiently transfected cells were plated at 1×10^5/well into 96-well plates coated with poly-D-lysine (Sigma). Forty-eight h after transfection, cells were rinsed in Krebs-Ringer bicarbonate buffer containing glucose (Sigma) and incubated in pre-stimulation buffer containing 0.75 mM 3-isobutyl-1-methylxanthine in the same buffer for 10 min at room temperature. […] The cells were lysed, and cAMP accumulation was measured according to the CatchPoint protocol. cAMP generated under the different experimental conditions was interpolated from a cAMP standard curve for each experiment. […] Emax and EC50 values were calculated with SoftMax Pro. cAMP measurements were performed on transiently transfected cells.

Rm2 (D122A) = biological target: T2, Rm2 (D122A) (Homo sapiens, UniProt P32245, D122A); assay: Receptor internalization (cell-surface FLAG ELISA), HEK293 cells stably expressing Rm2
T2 construct: prolactin signal peptide (N); green fluorescent protein (N); expressed in transfected cells; host or cells: HEK293
Description: as §1
(§3) Cell-surface expression of receptors was measured with an enzyme-linked immunosorbent assay (ELISA) that detects the extracellular FLAG tag. Transiently transfected cells were plated at 1×10^5/well into 96-well plates coated with poly-D-lysine (Sigma). […] Forty-eight h after transfection, cells were fixed in 4% paraformaldehyde (Sigma) for 10 min at 4°C. After two washes in phosphate-buffered saline, the cells were incubated in 1 µg/ml M1 anti-FLAG antibody (Sigma) for 2 h at room temperature, washed twice in phosphate-buffered saline, and incubated for 1 h at room temperature with horseradish peroxidase–conjugated goat-anti-mouse (1∶1000, BioRad, Chicago, IL). […] After 15–60 min, the optical density was read at 405 nm in a spectrophotometer. […]

D122A-MC4R (Rm2) = biological target: T3, D122A-MC4R (Rm2) (Homo sapiens, UniProt P32245, D122A); assay: cAMP assay, D122A MC4R (Rm2) in HEK293 cells
T3 construct: prolactin signal peptide (N); green fluorescent protein (N); expressed in transfected cells; host or cells: HEK293
Description: as §1, with “Wild-type and mutant MC4R were transfected into HEK 293 cells with Lipofectamine (Invitrogen).” left out
(§4) cAMP production was measured with an ultra sensitive enzymatic cAMP assay (CatchPoint, Molecular Devices, Sunnyvale, CA). Transiently transfected cells were plated at 1×10^5/well into 96-well plates coated with poly-D-lysine (Sigma). Forty-eight h after transfection, cells were rinsed in Krebs-Ringer bicarbonate buffer containing glucose (Sigma) and incubated in pre-stimulation buffer containing 0.75 mM 3-isobutyl-1-methylxanthine in the same buffer for 10 min at room temperature. […] The cells were lysed, and cAMP accumulation was measured according to the CatchPoint protocol. cAMP generated under the different experimental conditions was interpolated from a cAMP standard curve for each experiment. Four replicates were used for each condition, and all experiments were repeated at least three times. Emax and EC50 values were calculated with SoftMax Pro. cAMP measurements were performed on transiently transfected cells.

L106P-MC4R (Rm1) = biological target: T4, L106P-MC4R (Rm1) (Homo sapiens, UniProt P32245, L106P); assay: cAMP assay, L106P MC4R (Rm1) in HEK293 cells
T4 construct: prolactin signal peptide (N); green fluorescent protein (N); expressed in transfected cells; host or cells: HEK293
Description: as §1, with “Wild-type and mutant MC4R were transfected into HEK 293 cells with Lipofectamine (Invitrogen).” left out
as §4

Rm1 (L106P) = biological target: T5, Rm1 (L106P) (Homo sapiens, UniProt P32245, L106P); assay: Receptor internalization (cell-surface FLAG ELISA), HEK293 cells stably expressing Rm1
T5 construct: prolactin signal peptide (N); green fluorescent protein (N); expressed in transfected cells; host or cells: HEK293
Description: as §1, §3

MC4R G98R = biological target: T6, MC4R G98R (Homo sapiens, UniProt P32245, G98R); assay: cAMP assay, G98R MC4R mutant in HEK293 cells
T6 construct: prolactin signal peptide (N); green fluorescent protein (N); expressed in transfected cells; host or cells: HEK293
Description: as §1, §2

MC4R D126A = biological target: T7, MC4R D126A (Homo sapiens, UniProt P32245, D126A); assay: cAMP assay, D126A MC4R mutant in HEK293 cells
T7 construct: prolactin signal peptide (N); green fluorescent protein (N); expressed in transfected cells; host or cells: HEK293
Description: as §1, §2

MC4R E100A = biological target: T8, MC4R E100A (Homo sapiens, UniProt P32245, E100A); assay: cAMP assay, E100A MC4R mutant in HEK293 cells
T8 construct: prolactin signal peptide (N); green fluorescent protein (N); expressed in transfected cells; host or cells: HEK293
Description: as §1, §2

MC4R N97D = biological target: T9, MC4R N97D (Homo sapiens, UniProt P32245, N97D); assay: cAMP assay, N97D MC4R mutant in HEK293 cells
T9 construct: prolactin signal peptide (N); green fluorescent protein (N); expressed in transfected cells; host or cells: HEK293
Description: as §1, §2

MC4R S127L = biological target: T10, MC4R S127L (Homo sapiens, UniProt P32245, S127L); assay: cAMP assay, S127L MC4R mutant in HEK293 cells
T10 construct: prolactin signal peptide (N); green fluorescent protein (N); expressed in transfected cells; host or cells: HEK293
Description: as §1, §2

wild-type MC4R [1] = biological target: T11, wild-type MC4R (Homo sapiens, UniProt P32245); assay: Receptor internalization (cell-surface FLAG ELISA), HEK293 cells stably expressing wild-type MC4R; details: WT MC4R, 2-h exposure
T11 construct: prolactin signal peptide (N); expressed in transfected cells; host or cells: HEK293
Description: as §1, §3

wild-type MC4R [2] = biological target: T11, wild-type MC4R; assay: cAMP assay, wild-type MC4R in transiently transfected HEK293 cells
Description: as §1, with “Wild-type and mutant MC4R were transfected into HEK 293 cells with Lipofectamine (Invitrogen).” left out
as §4

wild-type MC4R [3] = biological target: T11, wild-type MC4R; assay: Cell-surface expression ELISA, transiently transfected HEK293 cells, wild-type MC4R; details: WT MC4R, transient transfection; α-MSH 1 µM
Description: as §1, §3

Compound: O=C(N[C@H](Cc1ccc(Cl)cc1)C(=O)N1CCC(Cn2cncn2)(C2CCCCC2)CC1)[C@H]1Cc2ccccc2CN1 (relative stereo) [THIQ]
- Emax (% of WT) (MC4R I102S): 49.2±2.2 % of WT
- Decrease in cell-surface expression (Rm2 (D122A); Rm2, 1 µM ligand): about 20%
- Receptor sequestration/internalization in words (Rm2 (D122A); Rm2, 2-h exposure, increasing concentrations): did not cause sequestration
- Emax (% of WT) (D122A-MC4R (Rm2); cAMP, D122A (Rm2)): 90.3±6.2 % of WT
- Emax (% of WT) (L106P-MC4R (Rm1); cAMP, L106P (Rm1)): 73.4±14.8 % of WT
- Internalization in words (time course) (Rm1 (L106P); Rm1, 1 µM ligand, 2-h exposure): did not internalize
- Receptor sequestration/internalization in words (Rm1 (L106P); Rm1, 2-h exposure, increasing concentrations): did not cause sequestration
- Emax (% of WT) (MC4R G98R): 2.6±0.6 % of WT
- Emax (% of WT) (MC4R D126A): 50.7±3.6 % of WT
- Emax (% of WT) (MC4R E100A): 44.54±4.9 % of WT
- Emax (% of WT) (MC4R N97D): 43.1±3.1 % of WT
- Emax (% of WT) (MC4R S127L): 21.7±3.5 % of WT
- Internalization in words (time course) (wild-type MC4R [1]; 1 µM ligand): did not result in internalization
- Receptor sequestration in words (wild-type MC4R [1]; increasing concentrations): did not cause sequestration
- Emax (% of WT) (wild-type MC4R [2]; cAMP, 2 h stimulation): 100 % of WT

- Activation (cAMP release) in words (D122A-MC4R (Rm2); Rm2, increasing concentrations): no activation
- Activation (cAMP release) in words (L106P-MC4R (Rm1); Rm1, increasing concentrations): no activation
- Activation (cAMP release) in words (wild-type MC4R [2]; WT MC4R, increasing concentrations): full activation
Compound: CSCC[C@H](NC(=O)[C@H](CCCNC(=N)N)NC(=O)[C@H](Cc1ccc(O)cc1)NC(=O)[C@@H]1CCCN1C(=O)CNC(=O)[C@H](CCC(=O)O)NC(=O)[C@H](CC(=O)O)NC(=O)[C@H](CCCCN)NC(=O)[C@H](CCCCN)NC(=O)[C@H](CCC(=O)O)NC(=O)[C@H](C)N)C(=O)N[C@@H](CCC(=O)O)C(=O)N[C@@H](Cc1c[nH]cn1)C(=O)N[C@@H](Cc1ccccc1)C(=O)N[C@@H](CCCNC(=N)N)C(=O)N[C@@H](Cc1c[nH]c2ccccc12)C(=O)NCC(=O)N[C@@H](CO)C(=O)N1CCC[C@H]1C(=O)N1CCC[C@H]1C(=O)N[C@@H](CCCCN)C(=O)N[C@@H](CC(=O)O)C(=O)O [β-MSH]

- Antagonism when co-administered with THIQ (L106P-MC4R (Rm1); Rm1, cAMP): full antagonist
Compound: agouti-related peptide (SSRRCVRLHESCLGQQVPCCDPCATCYCRFFNAFCYCRKLGTAMNPCSRT; UniProt O00253 83-132, looked up) [AGRP]
- Effect on cell-surface expression in words (wild-type MC4R [3]): stabilized receptor expression on the cell surface
